Where a SMILES comes first, the peptide text is derived from it. Bridges are numbered along the chain shown (N, C = ends). The star is where a group is joined. X8 = CC1=CC(C)(C)N(CCCS(=O)(=O)O)c2cc3c(cc21)/C(=C/C=C/C1=[N+](CCCS(=O)(=O)[O-])c2ccc(S(=O)(=O)O)cc2C1(C)CCCC(=O)*)C=C(C(C)(C)C)O3; X7 = CCN1c2cc3c(cc2C(C)=CC1(C)C)/C(=C/C=C/C1=[N+](CCCS(=O)(=O)[O-])c2ccc(S(=O)(=O)O)cc2C1(C)CCCC(=O)*)C=C(C(C)(C)C)O3; X2 = CCN1c2cc3c(cc2C(C)=CC1(C)C)/C(=C/C=C/C1=[N+](CCCCCC(=O)*)c2ccc(S(=O)(=O)[O-])cc2C1(C)C)C=C(C(C)(C)C)O3; X3 = CCN(CCCS(=O)(=O)O)c1ccc2c(c1)OC(C(C)(C)C)=C/C2=C\C=C\C1=[N+](CCCCCC(=O)*)c2ccc(S(=O)(=O)[O-])cc2C1(C)C; X9 = CCN(CC)c1ccc2c(c1)OC(C(C)(C)C)=C/C2=C\C=C\C1=[N+](CCCS(=O)(=O)[O-])c2ccc(S(=O)(=O)O)cc2C1(C)CCCC(=O)*
Experiments:
[1] = tested on: HT-29 human colon carcinoma tumour (c-Met expressing); test: In vivo optical imaging of HT-29 tumour-bearing nude mice; parameters: species or system mouse; details: HT-29 s.c. tumours in female BALB c/A nude mice, i.v., 635 nm excitation
Text: Female BALB c/A nude (Born) mice were used in the study. The use of the animals was approved by the local ethics committee. BALB c/A nude is an inbred immunocompromised mouse strain with a high take rate for human tumours as compared to other nude mice strains. The mice were 8 weeks old upon arrival and with a body weight of approx. 20 grams at the start of the study. The animals were housed in individually ventilated cages (IVC, Scanbur BK) with HEPA filtered air. The animals had ad libitum access to “Rat and Mouse nr. 3 Breeding” diet (Scanbur BK) and tap water acidified by addition of HCl to a molar concentration of 1 mM (pH 3.0).
The colon cancer cell HT-29 is derived from human colon carcinomas and is reported to express c-Met according to Zeng et al [Clin. Exp. Metastasis, 21, 409-417. (2004)]. The cell line was proven to be tumorigenic when inoculated subcutaneously into nude mice [Flatmark et al, Eur. J. Cancer 40, 1593-1598 (2004)].
HT-29 cells were grown in McCoy's 5a medium (Sigma #M8403) supplemented with 10% fetal bovine serum and penicillin/streptomycin. Stocks were made at passage number four (P4) and frozen down for storage in liquid nitrogen at 10^7 cells/vial in the respective culture media containing 5% DMSO. On the day of the transplantation, the cells were thawed quickly in 37° C. water bath (approx. 2 min), washed and resuspended in PBS/2% serum (centrifugation at 1200 rpm for 10 min). Thorough mixing of cells in the vials was ensured every time the cells were aspirated into the dosing syringe. A volume of 0.1 ml of cell suspension was injected s.c. at the shoulder and at the back using a fine bore needle (25 G). The animals were then returned to their cages and the tumours were allowed to grow for 13-17 days. The animals were allowed an acclimatisation period of at least 5 days before the inoculation procedure.
All test substances were reconstituted with PBS from freeze-dried powder. A small stack of white printer paper was imaged to obtain a flat field image which was used to correct for illumination inhomogeneities.
For immobilisation during the optical imaging procedure, the animals were anaesthetized in a coaxial open mask to light surgical level anaesthesia with Isoflurane (typically 1.3-2%), using oxygen as the carrier gas. A small piece of skin (3-5 mm) was removed over parts of the tumour and adjacent muscle using a surgical forceps and fine scissors while the animal was anaesthetized. This was done to measure the signal from tumour and muscle without interference from the overlying skin tissue. The wound was covered by applying a liquid, non-fluorescent bandage spray (3M, MN, USA).
The respiration and body temperature of the animal was monitored with a BioVet system (m2m Imaging Corp, NJ, USA) using a pneumatic sensor underneath the animal and a rectal temperature probe. The BioVet system also supplied external heating using a heating mat set to 40° C. to sustain normal body temperature for the duration of the imaging procedure (2 hours). A Venflon catheter was placed in the tail vein for contrast agent administration. Each animal was given one contrast agent injection. The injected volume was 0.1 ml of test compound followed immediately by a 0.2 ml saline flush. Fluorescence images were acquired just prior to injection and then every 30 seconds for 2 hours.
Imaging was performed through a clinical laparoscope adapted to use a light source to excite the reporter and a filtering system to extract the fluorescence component. […]

human c-Met/Fc chimera = target: T1, human c-Met/Fc chimera (Homo sapiens, UniProt P08581); test: Fluorescence polarisation assay, affinity binding to cMet; details: 5 nM dye-labelled peptide, c-Met/Fc 0-250 nM, 10 min at 30° C., one-site binding
T1 construct: Fc (immunoglobulin Fc fusion partner); purchased R&D Systems
T1 sequence (P08581 with tags, fused parts or gaps limits assumed): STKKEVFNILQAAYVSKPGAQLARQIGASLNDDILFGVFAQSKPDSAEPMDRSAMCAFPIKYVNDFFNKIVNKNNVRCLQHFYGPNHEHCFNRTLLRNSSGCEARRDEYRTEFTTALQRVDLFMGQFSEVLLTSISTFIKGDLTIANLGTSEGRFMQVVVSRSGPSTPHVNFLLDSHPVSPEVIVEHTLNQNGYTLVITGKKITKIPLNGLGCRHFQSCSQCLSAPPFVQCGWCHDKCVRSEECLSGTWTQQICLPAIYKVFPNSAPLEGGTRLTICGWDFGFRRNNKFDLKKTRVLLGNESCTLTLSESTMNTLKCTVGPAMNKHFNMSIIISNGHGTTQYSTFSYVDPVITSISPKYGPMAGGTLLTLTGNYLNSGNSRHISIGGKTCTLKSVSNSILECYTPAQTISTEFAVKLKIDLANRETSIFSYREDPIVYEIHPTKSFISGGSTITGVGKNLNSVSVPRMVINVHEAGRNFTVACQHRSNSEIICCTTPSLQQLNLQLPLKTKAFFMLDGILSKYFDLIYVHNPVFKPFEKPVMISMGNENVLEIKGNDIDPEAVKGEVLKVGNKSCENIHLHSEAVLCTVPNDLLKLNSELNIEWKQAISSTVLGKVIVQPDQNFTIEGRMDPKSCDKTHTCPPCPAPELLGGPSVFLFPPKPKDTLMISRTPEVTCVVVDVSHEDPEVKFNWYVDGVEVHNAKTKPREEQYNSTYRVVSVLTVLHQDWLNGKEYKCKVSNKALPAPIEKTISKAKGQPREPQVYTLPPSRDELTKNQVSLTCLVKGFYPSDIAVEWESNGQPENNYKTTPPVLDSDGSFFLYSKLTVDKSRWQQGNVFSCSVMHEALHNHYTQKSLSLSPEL
T1 sequence (P08581 25-307 limits assumed, change not shown): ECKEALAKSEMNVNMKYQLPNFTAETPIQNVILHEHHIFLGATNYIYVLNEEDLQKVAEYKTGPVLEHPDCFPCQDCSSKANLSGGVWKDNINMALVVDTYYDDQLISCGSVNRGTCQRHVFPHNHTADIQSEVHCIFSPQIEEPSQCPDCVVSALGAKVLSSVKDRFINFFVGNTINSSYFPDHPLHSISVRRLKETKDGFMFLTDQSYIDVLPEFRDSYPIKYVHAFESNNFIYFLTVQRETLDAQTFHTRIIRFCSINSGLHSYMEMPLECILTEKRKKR
Procedure: Monochromatic light passes through a […] polarizing filter and excites fluorescent molecules in the sample. Only those molecules that oriented properly in the vertically polarized plane adsorb light, become excited, and subsequently emit light. The emitted light is measured in both horizontal and vertical planes. The anisotropy value (A), is the ratio between the light intensities following the equation
The fluorescence anisotropy measurements were performed in 384-well microplates in a volume of 10 μL in binding buffer (PBS, 0.01% Tween-20, pH 7.5) using a Tecan Safire fluorescence polarisation plate reader (Tecan, US) at Ex 635/Em 678 nm. The concentration of dye-labelled peptide was held constant (5 nM) and the concentration of the human c-Met/Fc chimera (R&D Systems) was varied from 0-250 nM. Binding mixtures were equilibrated in the microplate for 10 min at 30° C. The observed change in anisotropy was fitted to the equation: […]
where robs is the observed anisotropy, rfree is the anisotropy of the free peptide, rbound is the anisotropy of the bound peptide, Kd is the dissociation constant, cMet is the total c-Met concentration, and P is the total dye-labelled peptide concentration. The equation assumes that the synthetic peptide and the receptor form a reversible complex in solution with 1:1 stoichiometry. Data fitting was done via nonlinear regression using SigmaPlot software to obtain the Kd value (one-site binding).
Compounds 1 to 6 were tested for binding towards human c-Met (Fc chimera).

human serum albumin [2] = target: T2, human serum albumin (Homo sapiens, UniProt P02768); test: in vitro
T2 sequence (P02768 25-609): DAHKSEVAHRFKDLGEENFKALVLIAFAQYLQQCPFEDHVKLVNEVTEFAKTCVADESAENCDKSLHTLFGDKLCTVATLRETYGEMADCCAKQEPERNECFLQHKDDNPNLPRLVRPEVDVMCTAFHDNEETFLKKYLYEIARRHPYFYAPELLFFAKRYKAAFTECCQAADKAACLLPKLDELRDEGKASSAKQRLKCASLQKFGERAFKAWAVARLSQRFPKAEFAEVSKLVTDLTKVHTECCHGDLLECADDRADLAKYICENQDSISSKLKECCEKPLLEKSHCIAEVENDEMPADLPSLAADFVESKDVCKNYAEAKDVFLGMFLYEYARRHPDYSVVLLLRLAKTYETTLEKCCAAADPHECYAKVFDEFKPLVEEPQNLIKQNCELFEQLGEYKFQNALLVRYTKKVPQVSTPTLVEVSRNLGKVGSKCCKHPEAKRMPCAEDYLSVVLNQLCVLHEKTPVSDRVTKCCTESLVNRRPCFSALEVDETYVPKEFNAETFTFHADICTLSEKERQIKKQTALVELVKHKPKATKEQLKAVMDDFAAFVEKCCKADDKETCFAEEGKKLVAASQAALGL
Text: Fluorescence polarisation assay was used to examine the affinity binding of the imaging agent towards the cMet target as well as the binding properties related to plasma proteins. The principle of the fluorescence polarisation method can briefly be described as follows:
(§1) The change of the polarization value was used to assess the binding of the Compound to human serum albumin as a low change of polarisation value is associated to low binding being appropriate for in-vivo use.

in vitro = details: mouse, plasma
Text: as §1

human serum albumin [3] = target: T2, human serum albumin

| Structure (SMILES) | Average tumour:muscle ratio (2 hours p.i.) [1] | Kd (human c-Met/Fc chimera) [nM] | fraction unbound (human serum albumin [2]) | remaining at 2 h (in vitro) [%] | Binding human serum albumin (Biacore) (human serum albumin [3]) |
| --- | --- | --- | --- | --- | --- |
| CC(=O)N[C@@H](C)C(=O)NCC(=O)N[C@@H](CO)C(=O)N[C@H]1CSSC[C@@H](C(=O)N[C@@H](Cc2ccc(O)cc2)C(=O)N[C@@H](CCC(=O)O)C(=O)N[C@H](C(=O)N[C@@H](CCC(=O)O)C(=O)NCC(=O)N[C@H](C(=O)NCC(=O)NCC(=O)NCC(=O)N[C@@H](CCCCNC(=O)CCCC2(C)C(/C=C/C=C3\C=C(C(C)(C)C)Oc4cc5c(cc43)C(C)=CC(C)(C)N5CCCS(=O)(=O)O)=[N+](CCCS(=O)(=O)[O-])c3ccc(S(=O)(=O)O)cc32)C(N)=O)[C@@H](C)O)[C@@H](C)O)NC(=O)[C@H](Cc2c[nH]c3ccccc23)NC(=O)[C@@H]2CSSC[C@H](NC(=O)[C@H](Cc3ccc(O)cc3)NC1=O)C(=O)N[C@@H](CO)C(=O)NCC(=O)N1CCC[C@H]1C(=O)N1CCC[C@H]1C(=O)N[C@@H](CCCNC(=N)N)C(=O)N[C@@H](Cc1ccccc1)C(=O)N[C@@H](CCC(=O)O)C(=O)N2 (stereo partly shown) [Compound 6] (Ac-AGSCYCSGPPRFECWCYETEGTGGGK(X8)-NH2; disulfide 4-16, 6-14) | 1.57 | – | – | – | – |
| CCN(CC)c1ccc2c(c1)OC(C(C)(C)C)=C/C2=C\C=C\C1=[N+](CCCS(=O)(=O)[O-])c2ccc(S(=O)(=O)O)cc2C1(C)CCCC(=O)NCCCC[C@H](NC(=O)CNC(=O)CNC(=O)CNC(=O)[C@@H](NC(=O)CNC(=O)[C@H](CCC(=O)O)NC(=O)[C@@H](NC(=O)[C@H](CCC(=O)O)NC(=O)[C@H](Cc1ccc(O)cc1)NC(=O)[C@@H]1CSSC[C@H](NC(=O)[C@H](CO)NC(=O)CNC(=O)[C@H](C)NC(C)=O)C(=O)N[C@@H](Cc2ccc(O)cc2)C(=O)N[C@H]2CSSC[C@H](NC(=O)[C@H](CCC(=O)O)NC(=O)[C@H](Cc3ccccc3)NC(=O)[C@H](CCCNC(=N)N)NC(=O)[C@@H]3CCCN3C(=O)[C@@H]3CCCN3C(=O)CNC(=O)[C@H](CO)NC2=O)C(=O)N[C@@H](Cc2c[nH]c3ccccc23)C(=O)N1)[C@@H](C)O)[C@@H](C)O)C(N)=O (stereo partly shown) [Compound 2] (Ac-AGSCYCSGPPRFECWCYETEGTGGGK(X9)-NH2; disulfide 4-16, 6-14) | 2.40 | – | – | – | – |
| CCN1c2cc3c(cc2C(C)=CC1(C)C)/C(=C/C=C/C1=[N+](CCCS(=O)(=O)[O-])c2ccc(S(=O)(=O)O)cc2C1(C)CCCC(=O)NCCCC[C@H](NC(=O)CNC(=O)CNC(=O)CNC(=O)[C@@H](NC(=O)CNC(=O)[C@H](CCC(=O)O)NC(=O)[C@@H](NC(=O)[C@H](CCC(=O)O)NC(=O)[C@H](Cc1ccc(O)cc1)NC(=O)[C@@H]1CSSC[C@H](NC(=O)[C@H](CO)NC(=O)CNC(=O)[C@H](C)NC(C)=O)C(=O)N[C@@H](Cc2ccc(O)cc2)C(=O)N[C@H]2CSSC[C@H](NC(=O)[C@H](CCC(=O)O)NC(=O)[C@H](Cc4ccccc4)NC(=O)[C@H](CCCNC(=N)N)NC(=O)[C@@H]4CCCN4C(=O)[C@@H]4CCCN4C(=O)CNC(=O)[C@H](CO)NC2=O)C(=O)N[C@@H](Cc2c[nH]c4ccccc24)C(=O)N1)[C@@H](C)O)[C@@H](C)O)C(N)=O)C=C(C(C)(C)C)O3 (stereo partly shown) [Compound 5] (Ac-AGSCYCSGPPRFECWCYETEGTGGGK(X7)-NH2; disulfide 4-16, 6-14) | 1.22 | – | – | – | – |
| CCN(CCCS(=O)(=O)O)c1ccc2c(c1)OC(C(C)(C)C)=C/C2=C\C=C\C1=[N+](CCCCCC(=O)NCCCC[C@H](NC(=O)CNC(=O)CNC(=O)CNC(=O)[C@@H](NC(=O)CNC(=O)[C@H](CCC(=O)O)NC(=O)[C@@H](NC(=O)[C@H](CCC(=O)O)NC(=O)[C@H](Cc2ccc(O)cc2)NC(=O)[C@@H]2CSSC[C@H](NC(=O)[C@H](CO)NC(=O)CNC(=O)[C@H](C)NC(C)=O)C(=O)N[C@@H](Cc3ccc(O)cc3)C(=O)N[C@H]3CSSC[C@H](NC(=O)[C@H](CCC(=O)O)NC(=O)[C@H](Cc4ccccc4)NC(=O)[C@H](CCCNC(=N)N)NC(=O)[C@@H]4CCCN4C(=O)[C@@H]4CCCN4C(=O)CNC(=O)[C@H](CO)NC3=O)C(=O)N[C@@H](Cc3c[nH]c4ccccc34)C(=O)N2)[C@@H](C)O)[C@@H](C)O)C(N)=O)c2ccc(S(=O)(=O)[O-])cc2C1(C)C [Compound 3] (Ac-AGSCYCSGPPRFECWCYETEGTGGGK(X3)-NH2; disulfide 4-16, 6-14) | 1.67 | 0.5 | 0.73 | > 95 | Low |
| CCN1c2cc3c(cc2C(C)=CC1(C)C)/C(=C/C=C/C1=[N+](CCCCCC(=O)NCCCC[C@H](NC(=O)CNC(=O)CNC(=O)CNC(=O)[C@@H](NC(=O)CNC(=O)[C@H](CCC(=O)O)NC(=O)[C@@H](NC(=O)[C@H](CCC(=O)O)NC(=O)[C@H](Cc2ccc(O)cc2)NC(=O)[C@@H]2CSSC[C@H](NC(=O)[C@H](CO)NC(=O)CNC(=O)[C@H](C)NC(C)=O)C(=O)N[C@@H](Cc4ccc(O)cc4)C(=O)N[C@H]4CSSC[C@H](NC(=O)[C@H](CCC(=O)O)NC(=O)[C@H](Cc5ccccc5)NC(=O)[C@H](CCCNC(=N)N)NC(=O)[C@@H]5CCCN5C(=O)[C@@H]5CCCN5C(=O)CNC(=O)[C@H](CO)NC4=O)C(=O)N[C@@H](Cc4c[nH]c5ccccc45)C(=O)N2)[C@@H](C)O)[C@@H](C)O)C(N)=O)c2ccc(S(=O)(=O)[O-])cc2C1(C)C)C=C(C(C)(C)C)O3 [Compound 4] (Ac-AGSCYCSGPPRFECWCYETEGTGGGK(X2)-NH2; disulfide 4-16, 6-14) | 1.52 | 3.2 | 0.45 | > 95 | Very high |
